Patent US12077503B2, “Substituted cyclic amides and their use as herbicides” (FMC CORPORATION, priority 2015, dated 2024)

Key:
Type in all cases: in vivo
[1] = tested on: giant foxtail (Setaria faberi); test: Test G Pre-Emergence Protocol; conditions: Setaria faberi, pre-emergence, 312 h, evaluated after 13 days
In short: (§1)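 Spraying took place one day after sowing, at 15.625, 62.5 or 250 g/ha, using an acetone/water (50:50) spray solution containing 0.5% Tween 20. Plants were kept under glasshouse conditions (24/16 °C, 14 h light, 65% humidity, watered twice daily), and injury was rated 0–100 at day 13.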

[2] = tested on: barnyardgrass (Echinochloa crus-galli); test: Test G Pre-Emergence Protocol; conditions: Echinochloa crus-galli, pre-emergence, 312 h, evaluated after 13 days
In short: as §1

[3] = tested on: ivy-leaved morning glory (Ipomoea hederacea); test: Test G Pre-Emergence Protocol; conditions: Ipomoea, pre-emergence, 312 h, evaluated after 13 days
In short: as §1

[4] = tested on: redroot pigweed (Amaranthus retroflexus); test: Test G Pre-Emergence Protocol; conditions: Amaranthus retroflexus, pre-emergence, 312 h, evaluated after 13 days
In short: as §1

[5] = tested on: velvetleaf (Abutilon theophrasti); test: Test G Pre-Emergence Protocol; conditions: Abutilon theophrasti, pre-emergence, 312 h, evaluated after 13 days
In short: as §1

corn (Zea mays) [6] = test: Test G Pre-Emergence Protocol; conditions: Zea mays, pre-emergence, 312 h, evaluated after 13 days
In short: as §1

[7] = tested on: giant foxtail (Setaria faberi); test: Test G Post-Emergence Protocol; conditions: Setaria faberi, post-emergence, 312 h, read-out: Foxtail, Giant damage rating
In short: (§2)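 Values are percent visual injury at 13 days after treatment (0 none, 100 total). Treatment was a post-emergence spray at 15.625, 62.5 or 250 g/ha on 8-day-old pot plants kept at 24/16 °C.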

[8] = tested on: barnyardgrass (Echinochloa crus-galli); test: Test G Post-Emergence Protocol; conditions: Echinochloa crus-galli, post-emergence, 312 h, read-out: Barnyardgrass damage rating
In short: as §2

[9] = tested on: ivy-leaved morning glory (Ipomoea hederacea); test: Test G Post-Emergence Protocol; conditions: Ipomoea, post-emergence, 312 h, read-out: Morningglory, Ivy-leaved damage rating
In short: as §2

[10] = tested on: redroot pigweed (Amaranthus retroflexus); test: Test G Post-Emergence Protocol; conditions: Amaranthus retroflexus, post-emergence, 312 h, read-out: Pigweed, Redroot damage rating
In short: as §2

[11] = tested on: velvetleaf (Abutilon theophrasti); test: Test G Post-Emergence Protocol; conditions: Abutilon theophrasti, post-emergence, 312 h, read-out: Velvetleaf damage rating
In short: as §2

corn (Zea mays) [12] = test: Test G Post-Emergence Protocol; conditions: Zea mays, post-emergence, 312 h, read-out: Corn damage rating
In short: as §2

[13] = 15.625 g ai/ha, evaluated after 13 days (100=total damage to plant; 0=no damage to plant)
[14] = 62.5 g ai/ha, evaluated after 13 days, 100=total damage to plant, 0=no damage to plant
[15] = 250 g ai/ha, evaluated after 13 days, 100=total damage to plant, 0=no damage to plant

Cc1ccc([C@H]2CN(C)C(=O)[C@@H]2C(=O)Nc2ccc3cccnc3n2)cc1 (racemic) [Compound 1675]
pest or weed control at 15.625 g/ha ([1]; 15.625 g ai/ha, read-out: Foxtail, Giant damage rating (100=total damage to plant; 0=no damage to plant)): 0% | pest or weed control at 62.5 g/ha ([1]; 62.5 g ai/ha, 100=total damage to plant, 0=no damage to plant, read-out: Foxtail, Giant damage rating): 0% | pest or weed control at 250 g/ha ([1]; 250 g ai/ha, read-out: Foxtail, Giant damage rating (100=total damage to plant; 0=no damage to plant)): 10% | pest or weed control at 15.625 g/ha ([2]; 15.625 g ai/ha, read-out: Barnyardgrass damage rating (100=total damage to plant; 0=no damage to plant)): 0% | pest or weed control at 62.5 g/ha ([2]; 62.5 g ai/ha, 100=total damage to plant, 0=no damage to plant, read-out: Barnyardgrass damage rating): 0% | pest or weed control at 250 g/ha ([2]; 250 g ai/ha, read-out: Barnyardgrass damage rating (100=total damage to plant; 0=no damage to plant)): 0% | pest or weed control at 15.625 g/ha ([3]; 15.625 g ai/ha, read-out: Morningglory, Ivy-leaved damage rating (100=total damage to plant; 0=no damage to plant)): 0% | pest or weed control at 62.5 g/ha ([3]; 62.5 g ai/ha, 100=total damage to plant, 0=no damage to plant, read-out: Morningglory, Ivy-leaved damage rating): 0% | pest or weed control at 250 g/ha ([3]; 250 g ai/ha, read-out: Morningglory, Ivy-leaved damage rating (100=total damage to plant; 0=no damage to plant)): 0% | pest or weed control at 15.625 g/ha ([4]; 15.625 g ai/ha, read-out: Pigweed, Redroot damage rating (100=total damage to plant; 0=no damage to plant)): 0% | pest or weed control at 62.5 g/ha ([4]; 62.5 g ai/ha, 100=total damage to plant, 0=no damage to plant, read-out: Pigweed, Redroot damage rating): 0% | pest or weed control at 250 g/ha ([4]; 250 g ai/ha, read-out: Pigweed, Redroot damage rating (100=total damage to plant; 0=no damage to plant)): 0% | pest or weed control at 15.625 g/ha ([5]; 15.625 g ai/ha, read-out: Velvetleaf damage rating (100=total damage to plant; 0=no damage to plant)): 0% | pest or weed control at 62.5 g/ha ([5]; 62.5 g ai/ha, 100=total damage to plant, 0=no damage to plant, read-out: Velvetleaf damage rating): 0% | pest or weed control at 250 g/ha ([5]; 250 g ai/ha, read-out: Velvetleaf damage rating (100=total damage to plant; 0=no damage to plant)): 0% | plant injury at 15.625 g/ha (corn (Zea mays) [6]; 15.625 g ai/ha, read-out: Corn damage rating (100=total damage to plant; 0=no damage to plant)): 0% | plant injury at 62.5 g/ha (corn (Zea mays) [6]; 62.5 g ai/ha, 100=total damage to plant, 0=no damage to plant, read-out: Corn damage rating): 0% | plant injury at 250 g/ha (corn (Zea mays) [6]; 250 g ai/ha, read-out: Corn damage rating (100=total damage to plant; 0=no damage to plant)): 0% | pest or weed control at 15.625 g/ha [7, 13]: 0% | pest or weed control at 62.5 g/ha [7, 14]: 0% | pest or weed control at 250 g/ha [7, 15]: 20% | pest or weed control at 15.625 g/ha [8, 13]: 0% | pest or weed control at 62.5 g/ha [8, 14]: 0% | pest or weed control at 250 g/ha [8, 15]: 0% | pest or weed control at 15.625 g/ha [9, 13]: 0% | pest or weed control at 62.5 g/ha [9, 14]: 0% | pest or weed control at 250 g/ha [9, 15]: 0% | pest or weed control at 15.625 g/ha [10, 13]: 0% | pest or weed control at 62.5 g/ha [10, 14]: 0% | pest or weed control at 250 g/ha [10, 15]: 0% | pest or weed control at 15.625 g/ha [11, 13]: 0% | pest or weed control at 62.5 g/ha [11, 14]: 0% | pest or weed control at 250 g/ha [11, 15]: 10% | plant injury at 15.625 g/ha (corn (Zea mays) [12]; [13]): 0% | plant injury at 62.5 g/ha (corn (Zea mays) [12]; [14]): 0% | plant injury at 250 g/ha (corn (Zea mays) [12]; [15]): 0%
